Assay [1] has as its target Neuronal acetylcholine receptor subunit alpha-7 (Homo sapiens, UniProt P36544). Description: Antagonist activity at human alpha7 nAChR expressed in Xenopus oocyte assessed as inhibition of ACh-induced current at 10 uM after 30 secs by electrophysiological assay. It is filed as functional.
The target of assay [2] is T1, Neuronal acetylcholine receptor; alpha3/beta2 (Homo sapiens) (UniProt P17787+P32297). As to the kind of experiment: Positive allosteric modulation at human recombinant alpha3beta 2 nAChR expressed in Xenopus oocyte assessed as stimulation of ACh-induced current at 10 uM after 30 secs by electrophysiological assay.
Assay [3] has as its target T1, Neuronal acetylcholine receptor; alpha3/beta2 (Homo sapiens). As to the kind of experiment: Positive allosteric modulation at human recombinant alpha3beta 2 nAChR expressed in Xenopus oocyte assessed as inhibition of ACh-induced current at 100 uM after 30 secs by electrophysiological assay.

Activity calls are given as the source filed them. The calls are words filed in the database; no cut-off is given here.

The inhibition is how much of the control response was suppressed.

Chain of Neuronal acetylcholine receptor subunit alpha-7 (P36544 whole entry): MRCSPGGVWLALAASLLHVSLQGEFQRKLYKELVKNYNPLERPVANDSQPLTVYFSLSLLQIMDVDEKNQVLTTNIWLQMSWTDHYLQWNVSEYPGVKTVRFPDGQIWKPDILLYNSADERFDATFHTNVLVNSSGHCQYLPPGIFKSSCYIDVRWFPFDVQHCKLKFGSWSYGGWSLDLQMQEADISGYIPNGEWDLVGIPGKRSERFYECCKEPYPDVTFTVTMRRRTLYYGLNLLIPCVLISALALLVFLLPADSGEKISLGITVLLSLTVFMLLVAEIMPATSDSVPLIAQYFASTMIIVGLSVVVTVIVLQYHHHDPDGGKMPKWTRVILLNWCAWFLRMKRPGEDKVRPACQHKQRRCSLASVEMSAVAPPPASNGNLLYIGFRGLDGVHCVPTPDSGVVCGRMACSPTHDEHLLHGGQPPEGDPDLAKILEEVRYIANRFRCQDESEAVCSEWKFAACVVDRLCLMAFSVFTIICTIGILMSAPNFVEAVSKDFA

For `O=C(NCC1CC2CCN1CC2)c1ccc(F)cc1` (racemic), the inhibition in assay [1] was determined as 84%. The result in assay [2] and in assay [3] was Active.

Source of the values: ChEMBL document CHEMBL2062445, “Synthesis and nicotinic receptor activity of chemical space analogues of N-(3R)-1-azabicyclo[2.2.2]oct-3-yl-4-chlorobenzamide (PNU-282,987) and 1,4-diazabicyclo[3.2.2]nonane-4-carboxylic acid 4-bromophenyl ester (SSR180711)” (J Med Chem, 2012).
